Measurements taken from ChEMBL document CHEMBL3098059, “Identification by in silico and in vitro screenings of small organic molecules acting as reversible inhibitors of kallikreins” (Eur J Med Chem, 2013).
Active and inactive are the calls of the source. The rule behind the calls is not given here.

Experiments:
Kallikrein-7 [1] = target: T1, Kallikrein-7 (Homo sapiens, UniProt P49862); assay: Reversible inhibition of human kallikrein7 using Suc-Leu-Leu-Val-Tyr-AMC as substrate after 15 to 60 mins by fluorescence assay
Target sequence in this assay (P49862 30-253 limits assumed): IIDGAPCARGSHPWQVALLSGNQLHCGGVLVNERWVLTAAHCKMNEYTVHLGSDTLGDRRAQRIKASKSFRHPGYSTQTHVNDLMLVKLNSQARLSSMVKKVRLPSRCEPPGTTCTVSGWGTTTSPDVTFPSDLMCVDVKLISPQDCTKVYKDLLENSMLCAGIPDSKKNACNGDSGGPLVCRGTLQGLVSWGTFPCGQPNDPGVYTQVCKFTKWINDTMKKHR

Kallikrein-7 [2] = target: T1, Kallikrein-7; assay: Inhibition of human kallikrein7 using Suc-Leu-Leu-Val-Tyr-AMC as substrate at 50 uM after 15 mins by fluorescence assay
Target sequence in this assay (P49862 30-253 limits assumed): as above

[3] = target: T2, Kallikrein-14 (Homo sapiens) (UniProt Q9P0G3); assay: Reversible inhibition of human kallikrein14 using Boc-Val-Pro-Arg-AMC as substrate after 15 to 60 mins by fluorescence assay
T2 sequence (whole entry): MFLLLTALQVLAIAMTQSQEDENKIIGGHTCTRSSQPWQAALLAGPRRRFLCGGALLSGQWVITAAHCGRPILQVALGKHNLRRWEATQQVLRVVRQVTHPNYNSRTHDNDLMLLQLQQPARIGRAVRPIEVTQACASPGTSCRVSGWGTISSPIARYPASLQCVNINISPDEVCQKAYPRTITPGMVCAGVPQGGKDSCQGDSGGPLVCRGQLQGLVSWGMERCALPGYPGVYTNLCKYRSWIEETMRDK

[4] = target: T3, Suppressor of tumorigenicity 14 protein (Homo sapiens) (UniProt Q9Y5Y6); assay: Inhibition of matriptase (unknown origin) using Boc-Gln-Ala-Arg-AMC as substrate at 50 uM after 15 mins by fluorescence assay
T3 sequence (whole entry): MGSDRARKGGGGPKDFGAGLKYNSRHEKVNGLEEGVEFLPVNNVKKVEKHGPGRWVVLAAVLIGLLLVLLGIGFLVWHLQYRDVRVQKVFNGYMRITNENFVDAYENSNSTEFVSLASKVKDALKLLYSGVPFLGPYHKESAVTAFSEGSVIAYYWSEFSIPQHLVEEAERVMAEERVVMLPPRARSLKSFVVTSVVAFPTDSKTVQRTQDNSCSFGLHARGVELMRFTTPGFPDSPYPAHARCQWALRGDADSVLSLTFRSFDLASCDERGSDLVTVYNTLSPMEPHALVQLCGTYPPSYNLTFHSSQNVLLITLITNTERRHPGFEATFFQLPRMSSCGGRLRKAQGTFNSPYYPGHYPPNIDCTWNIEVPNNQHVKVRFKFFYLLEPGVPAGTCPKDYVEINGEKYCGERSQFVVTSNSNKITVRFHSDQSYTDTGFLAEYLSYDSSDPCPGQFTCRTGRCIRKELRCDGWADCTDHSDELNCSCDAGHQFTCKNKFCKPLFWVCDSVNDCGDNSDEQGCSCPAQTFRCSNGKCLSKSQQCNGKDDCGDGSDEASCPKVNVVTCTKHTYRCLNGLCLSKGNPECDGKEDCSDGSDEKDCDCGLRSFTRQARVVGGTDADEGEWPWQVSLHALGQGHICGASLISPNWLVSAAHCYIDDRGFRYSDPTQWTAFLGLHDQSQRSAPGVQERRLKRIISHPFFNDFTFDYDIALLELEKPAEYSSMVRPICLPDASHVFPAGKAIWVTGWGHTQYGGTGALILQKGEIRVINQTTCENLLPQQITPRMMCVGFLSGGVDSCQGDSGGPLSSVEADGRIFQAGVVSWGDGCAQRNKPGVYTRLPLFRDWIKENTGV

[5] = target: T3, Suppressor of tumorigenicity 14 protein (Homo sapiens); assay: Reversible inhibition of matriptase (unknown origin) using Boc-Gln-Ala-Arg-AMC as substrate after 15 to 60 mins by fluorescence assay
[6] = target: Kallikrein-5 (Homo sapiens) (UniProt Q9Y337); assay: Reversible inhibition of human kallikrein5 using Boc-Val-Pro-Arg-AMC as substrate after 15 to 60 mins by fluorescence assay
[7] = target: T2, Kallikrein-14 (Homo sapiens); assay: Inhibition of human kallikrein14 using Boc-Val-Pro-Arg-AMC as substrate at 50 uM after 15 mins by fluorescence assay
[8] = target: Kallikrein-5 (Homo sapiens) (UniProt Q9Y337); assay: Inhibition of human kallikrein5 using Boc-Val-Pro-Arg-AMC as substrate at 50 uM after 15 mins by fluorescence assay
Kallikrein-7 [9] = target: T1, Kallikrein-7; assay: Inhibition of human kallikrein7 using Suc-Leu-Leu-Val-Tyr-AMC as substrate after 15 mins by fluorescence assay
Target sequence in this assay (P49862 whole entry): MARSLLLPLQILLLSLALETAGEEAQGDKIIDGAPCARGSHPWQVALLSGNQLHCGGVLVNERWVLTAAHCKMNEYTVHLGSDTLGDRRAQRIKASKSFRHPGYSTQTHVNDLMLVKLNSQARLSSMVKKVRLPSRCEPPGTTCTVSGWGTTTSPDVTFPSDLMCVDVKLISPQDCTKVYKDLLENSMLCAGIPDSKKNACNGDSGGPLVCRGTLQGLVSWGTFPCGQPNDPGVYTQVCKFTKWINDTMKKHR

[10] = target: Kallikrein-5 (Homo sapiens) (UniProt Q9Y337); assay: Competitive inhibition of human kallikrein5 using Boc-Val-Pro-Arg-AMC as substrate at 50 uM after 15 to 60 mins by Lineweaver-Burk/Eadie-Hofstee plot analysis
Kallikrein-7 [11] = target: T1, Kallikrein-7; assay: Mixed-type inhibition of human kallikrein7 using Suc-Leu-Leu-Val-Tyr-AMC as substrate assessed as enzyme-inhibitor complex after 15 to 60 mins by Lineweaver-Burk/Eadie-Hofstee plot analysis
Target sequence in this assay (P49862 whole entry): as above

[12] = Cytotoxicity against human keratinocytes assessed as cell viability at 1 uM after 24 to 48 hrs by neutral red assay; type: cell-based; conditions: keratinocyte
Kallikrein-7 [13] = target: T1, Kallikrein-7; assay: Ratio of Ki for mixed-type inhibition of human kallikrein7 assessed as enzyme-substrate-inhibitor complex to Ki for mixed-type inhibition of human kallikrein7 assessed as enzyme-inhibitor complex
Target sequence in this assay (P49862 30-253 limits assumed): as the sequence (P49862 30-253 limits assumed) above

[14] = target: T4, Suppressor of tumorigenicity 14 protein (Homo sapiens, UniProt Q9Y5Y6); assay: Inhibition of matriptase (unknown origin) using Boc-Gln-Ala-Arg-AMC as substrate after 15 mins by fluorescence assay
T4 sequence (Q9Y5Y6 whole entry): T3 sequence (whole entry)

Kallikrein-7 [15] = target: T1, Kallikrein-7; assay: Mixed-type inhibition of human kallikrein7 using Suc-Leu-Leu-Val-Tyr-AMC as substrate assessed as enzyme-substrate-inhibitor complex after 15 to 60 mins by Lineweaver-Burk/Eadie-Hofstee plot analysis
Target sequence in this assay (P49862 whole entry): as the sequence (P49862 whole entry) above

[16] = Cytotoxicity against human keratinocytes assessed as cell viability at 10 uM after 24 to 48 hrs by neutral red assay; type: cell-based, Keratinocyte; conditions: for Activity: keratinocyte, 10 µM
Kallikrein-14 = target: T5, Kallikrein-14 (Homo sapiens, UniProt Q9P0G3); assay: Inhibition of human kallikrein14 using Boc-Val-Pro-Arg-AMC as substrate after 15 mins by fluorescence assay
T5 sequence (Q9P0G3 whole entry): T2 sequence (whole entry)

[17] = Cytotoxicity against human keratinocytes assessed as cell viability at 100 uM after 24 to 48 hrs by neutral red assay; type: cell-based; conditions: keratinocyte
Kallikrein-5 [18] = target: T6, Kallikrein-5 (Homo sapiens, UniProt Q9Y337); assay: Competitive inhibition of human kallikrein5 using Boc-Val-Pro-Arg-AMC as substrate after 15 to 60 mins by Lineweaver-Burk/Eadie-Hofstee plot analysis
T6 sequence (Q9Y337 whole entry): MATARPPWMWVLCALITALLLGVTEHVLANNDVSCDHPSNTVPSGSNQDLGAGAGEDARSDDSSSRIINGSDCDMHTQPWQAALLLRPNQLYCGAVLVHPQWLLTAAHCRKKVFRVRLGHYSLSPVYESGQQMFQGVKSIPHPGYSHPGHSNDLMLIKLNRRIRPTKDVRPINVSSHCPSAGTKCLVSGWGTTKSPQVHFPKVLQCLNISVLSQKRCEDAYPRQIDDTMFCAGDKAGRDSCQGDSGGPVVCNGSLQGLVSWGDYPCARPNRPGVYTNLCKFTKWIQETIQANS

Kallikrein-5 [19] = target: T6, Kallikrein-5; assay: Inhibition of human kallikrein5 using Boc-Val-Pro-Arg-AMC as substrate after 15 mins by fluorescence assay

| SMILES | inhibition (Kallikrein-7 [1]) | inhibition (Kallikrein-7 [2]) [%] | inhibition [3] | inhibition [4] [%] | inhibition [5] | inhibition [6] | inhibition [7] [%] | inhibition [8] [%] | IC50 (Kallikrein-7 [9]) [µM] | Ki (Kallikrein-7 [11]) [µM] | Ratio Ki (Kallikrein-7 [13]) | IC50 [14] [µM] | Ki (Kallikrein-7 [15]) [µM] | IC50 (Kallikrein-14) [µM] | Ki (Kallikrein-5 [18]) [µM] | IC50 (Kallikrein-5 [19]) [µM] | Activity [12] | Activity [16] | also measured |
| --- | --- | --- | --- | --- | --- | --- | --- | --- | --- | --- | --- | --- | --- | --- | --- | --- | --- | --- | --- |
| CCOc1cccc(NC(=O)/C(C#N)=C\c2ccc(O)c(OC)c2)c1 | Active | < 30 | Active | < 30 | Active | Active | < 30 | < 30 | – | – | – | – | – | – | – | – | – | – | – |
| CCOc1cccc(NC(=O)/C(C#N)=C\c2ccc(O)cc2)c1 | Active | < 30 | Active | < 30 | Active | Active | < 30 | < 30 | – | – | – | – | – | – | – | – | – | – | – |
| O=c1c2ccccc2nc(CSc2[nH]cnc3ncnc2-3)n1-c1cccc(C(F)(F)F)c1 | Active | < 30 | Active | < 30 | Active | Active | < 30 | < 30 | – | – | – | – | – | – | – | – | – | – | – |
| O=c1c2ccccc2nc(CSc2ccccn2)n1-c1cccc(C(F)(F)F)c1 | Active | < 30 | Active | < 30 | Active | Active | < 30 | < 30 | – | – | – | – | – | – | – | – | – | – | – |
| COc1ccc(/C=C2/SC(=O)N(CNc3cc(F)ccc3C)C2=O)cc1OC | Active | – | Active | – | Active | Active | – | – | 106 | 83 | 2 | 103 | 166 | 112 | 95 | 117 | Non-toxic | Non-toxic | – |
| CNC(=O)c1ccc(Nc2nnc(-c3ccc(O)cc3)c3ccccc23)cc1 | Active | – | Active | < 30 | Active | Active | – | < 30 | 66 | 50 | 2 | – | 166 | 96 | – | – | Non-toxic | Non-toxic | inhibition [10]: < 30% |
| CCOc1cc(/C=C(/C#N)C(=O)Nc2ccc(O)cc2)ccc1O | Active | – | Active | – | Active | Active | – | – | 94 | 75 | 2 | 98 | 152 | 101 | 107 | 117 | Non-toxic | Non-toxic | – |

Now from value to compound, other results behind:

| inhibition (Kallikrein-7 [1]) | inhibition (Kallikrein-7 [2]) [%] | inhibition [3] | inhibition [4] [%] | inhibition [5] | inhibition [6] | inhibition [7] [%] | inhibition [8] [%] | IC50 (Kallikrein-7 [9]) [µM] | Ki (Kallikrein-7 [11]) [µM] | Ratio Ki (Kallikrein-7 [13]) | IC50 [14] [µM] | Ki (Kallikrein-7 [15]) [µM] | IC50 (Kallikrein-14) [µM] | Ki (Kallikrein-5 [18]) [µM] | IC50 (Kallikrein-5 [19]) [µM] | SMILES | Activity [12] | Activity [16] | also measured |
| --- | --- | --- | --- | --- | --- | --- | --- | --- | --- | --- | --- | --- | --- | --- | --- | --- | --- | --- | --- |
| Active | < 30 | Active | < 30 | Active | Active | < 30 | < 30 | – | – | – | – | – | – | – | – | CCOc1cc(/C=C(/C#N)C(=O)Nc2ccc(O)cc2)ccc1OC | – | – | – |
| Active | < 30 | Active | < 30 | Active | Active | < 30 | < 30 | – | – | – | – | – | – | – | – | CCOc1ccc(/C=C(/C#N)C(=O)Nc2ccc(O)cc2)cc1OC | – | – | – |
| Active | – | Active | – | Active | Active | – | < 30 | 113 | 95 | 2 | 75 | 140 | 87 | – | – | CCOc1cccc(NC(=O)/C(C#N)=C\c2ccc(OCC(=O)O)c(OC)c2)c1 | Non-toxic | Non-toxic | inhibition [10]: < 30% |
| Active | – | Active | – | Active | Active | – | – | 83 | 55 | 2 | 128 | 131 | 108 | 121 | 125 | COc1cc(/C=C(/C#N)c2nc3ccccc3[nH]2)ccc1OCC(=O)N1CCOCC1 | Non-toxic | Non-toxic | Activity [17]: Non-toxic |
| Active | < 30 | Active | < 30 | Active | Active | < 30 | < 30 | – | – | – | – | – | – | – | – | COc1cc(/C=C(/C#N)c2nc3ccccc3[nH]2)ccc1OCc1ccccc1 | – | – | – |
| Active | < 30 | Active | – | Active | Active | – | < 30 | – | – | – | 138 | – | 122 | – | – | COc1ccc(/C=C/C(=O)c2ccc(O)cc2)cc1COc1ccc(Cl)cc1 | – | – | viability at 10 µM ([16]; keratinocytes, read-out: Activity): 30% |
| Active | – | Active | – | Active | Active | – | – | 90 | 72 | 2 | 120 | 164 | 99 | 100 | 127 | COc1ccc(NC(=O)/C(C#N)=C\c2ccc(O)c(OC)c2)cc1 | – | – | – |
| Active | – | Active | – | Active | Active | – | – | 107 | 70 | 2 | 111 | 129 | 106 | 112 | 131 | COc1cc(/C=C(/C#N)C(=O)Nc2ccc(O)cc2)ccc1O | – | – | – |
